{"source": "patent US20240108740A1", "about": "“THERAPEUTIC COMPOSITIONS INCLUDING SPN10 AND USES THEREOF” (Stealth BioTherapeutics Inc., priority 2022, published 2024)", "key": {"[1]": {"tested_on": "subjects at risk for developing hyperalgesia", "experiment": "Prevention of neuropathy or hyperalgesia in at-risk humans", "assay_type": "in vivo, human", "conditions": "s.c., once daily", "text": "Subjects at risk for developing hyperalgesia will be recruited as they present in clinic for the treatment of conditions associated with the development of peripheral neuropathy or hyperalgesia. Independent studies will address neuropathy and hyperalgesia resulting from, caused by, or otherwise associated with genetic disorders, metabolic/endocrine complications, inflammatory diseases, vitamin deficiencies, malignant diseases, and toxicity, such as alcohol, organic metal, heavy metal, radiation, and drug toxicity. Subjects will be selected such that they are at risk for developing a single type of neuropathy or hyperalgesia, having no risk factors outside the scope of the study in which the subject is enrolled, and as yet not having symptoms associated with neuropathy or hyperalgesia. Subjects will be screened for their willingness to enroll in the study, and informed consent will be obtained. […]\nAfter a focused interview about the medical history, baseline measurements of touch and sharpness detection thresholds, grooved pegboard tests, and thermal detection thresholds will be determined according to the methods described above, with statistical analysis as described above. […]\nSubjects will be evaluated weekly during the trial for sharpness detection thresholds, grooved pegboard tests, and thermal detection thresholds. […]"}, "[2]": {"tested_on": "isolated mouse liver mitochondria", "experiment": "Example 19: H2O2 production by isolated mitochondria (luminol chemiluminescence)", "conditions": "AUC over 20 min", "protocol": "Livers will be harvested from mice, homogenized in ice-cold buffer, and centrifuged at 13800×g for 10 min. The pellet will be washed once, re-suspended in 0.3 mL of wash buffer, and placed on ice until use. H2O2 will be measured using luminol chemiluminescence as described previously (Li, et al., Biochim. Biophys. Acta 1428:1-12 (1999). 0.1 mg mitochondrial protein will be added to 0.5 mL potassium phosphate buffer (100 mM, pH 8.0) in the presence of vehicle, peptide conjugates, SPN10(s) alone or in combination with aromatic-cationic peptides, or aromatic-cationic peptides. […] luminol and 0.7 IU horseradish peroxidase will be added, and chemiluminescence will be monitored with a Chronolog Model 560 aggregometer (Havertown, PA) for 20 minutes at 37° C. The amount of H2O2 produced will be quantified as the area under the curve (AUC) over 20 min, and all data will be normalized to AUC produced by mitochondria alone."}, "[3]": {"tested_on": "anatomic zone of no-reflow", "experiment": "No re-flow phenomenon after PCI in humans", "assay_type": "in vivo, human", "conditions": "at the time of reperfusion", "protocol": "Study group. Men and women, 18 years of age or older, who present within 6 hours after the onset of chest pain, who have ST-segment elevation of more than 0.1 mV in two contiguous leads, and for whom the clinical decision is made to treat with PCI will be eligible for enrollment. Patients will be eligible for the study whether they are undergoing primary PCI or rescue PCI. Occlusion of the affected coronary artery (Thrombolysis in Myocardial Infarction [TIMI] flow grade 0) at the time of admission will also be a criterion for inclusion. Angiography and Revascularization. Left ventricular and coronary angiography will be performed with the use of standard techniques, just before revascularization. […] No re-flow will be assessed by one or more imaging techniques. Re-flow phenomenon will be assessed using myocardial contrast echocardiography, coronary angiography, myocardial blush, coronary doppler imaging, electrocardiography, nuclear imaging single-photon emission CT, using thallium or technetium-99 m, or PET. […] Post-contrast delayed enhancement will be used on day 4±1, day 30±3 and 6+1.5 months after successful PCI and stenting to quantify infracted myocardium. This will be defined quantitatively by an intensity of the myocardial post-contrast signal that is more than 2 SD above that in a reference region of remote, non-infarcted myocardium within the same slice. […]"}}, "note": "Residues, ends and D or L forms follow the SMILES beside them.", "data": [{"smiles": "N=C(N)NCCC[C@H](NC(=O)[C@@H](N)Cc1c[nH]c2ccccc12)C(=O)N[C@@H](Cc1c[nH]c2ccccc12)C(=O)N[C@@H](CCCCN)C(N)=O", "note": "[SPN10, H-L-Trp-L-Arg-L-Trp-L-Lys-NH2] (H-WRWK-NH2)", "values": [{"measurement": "development of neuropathy or hyperalgesia", "setting": "[1]", "result": "attenuated"}, {"measurement": "amount of H2O2 production", "setting": "[2]", "result": "significantly reduced"}, {"measurement": "anatomic zone of no-reflow versus placebo", "setting": "[3]", "result": "smaller"}]}]}
